# Measured values: patent publication US4959368A, “Therapeutic agent for neurological diseases” (Mitsui Petrochemical Industries Ltd., priority 1986, dated 1990)
# What was measured:
# [1] = system: human neuroblastoma cell line GOTO; test: Activity on neuroblastoma cell line GOTO (cell number, number and length of neurites); type: cell-based; conditions: for Number of cells (mean ± S.E.): control 5.30 ± 0.23
# Protocol: (§1) The biological activities in vitro of the compounds of formula (I) on cells of the nervous system were tested. The cells tested were human neuroblastoma cell line GOTO [see Sekiguchi, M., Oota, T., Sakakibara, K., Inui, N. & Fujii, G., Japan. J. Exp. Med., 49, 67-83 (1979)], and neuroblastoma cell line NB-1 [see Miyake, S., Shimo, Y., Kitamura, T., Nojyo, Y., Nakamura, T., Imkashuku, S. and Abe, T., The Autonomic Nervous System, 10, 115-120 (1973)], and mouse neuroblastoma cell line neuro-2a (Dainippon Pharmaceutical Co., Ltd.) which have been established as the cells of the nervous system. The above neuve cells were grown in an incubator at 37° C. in the presence of 5% carbon dioxide gas exponentially, and then cultivated for a certain period of time together with the compounds of formula (I).
# The effect of the compounds of this invention on neuroblastoma cells was examined by the following method.
# A culture medium [composed of 45% of RPMI 1640 medium, 45% modified Eagle's medium (MEM) and 10% of fetal calf serum (FCS) and containing penicillin G sodium (100 units/ml) and streptomycin sulfate (100 microgram/ml)] containing neurobalstoma cell line GOTO in the logarithmic growth period was poured in an amount of 2 ml each into polystyrene dishes (35 mm; made by Corning Co.) so that the cell concentration was 2 to 6×10^4 cells per dish, and the cells were cultured for 1 to 2 days in a carbon dioxide gas incubator containing 5% of carbon dioxide gas in air at 37° C. Then, the culture fluid was removed, and 2 ml of a fresh serum-free culture fluid (consisting of 50% of RPMI medium and 50% of MEM medium and containing penicillin G sodium and streptomycin sulfate in the same amounts as above) was added. At the same time, a presterilized PBS solution (phosphate buffered saline) of each of the test compounds in various concentrations was added to each of the dishes. After culturing for 24 hours, the number of living cells was counted. Furthermore, the culture was photographed, and from the photos, the number and length of neurites per cell were measured. The numer of living cells was counted for 3 to 6 dishes by resistance to staining with erythrosine dye. The number and length of the neurites were measured with regard to 6 photos (more than 200 cells per photo).
# [2] = system: mouse neuroblastoma cell line neuro-2a; test: Activity on neuro-2a, cells with outgrown neurites; type: cell-based
# Protocol: In order to examine the effects of the test compounds, the following method was also employed.
# Mouse neuro 2a cells in the logarithmic growth period in the Dulbecco's modified Eagle's medium (DMEM) containing 10% FCS was seeded in a 48-well plate so that the number of cells was 1,000 cells/well, and cultured for one day in 0.25 ml of the culture fluid in each well. The culture medium was then replaced by a medium containing each of the test compounds and FCS, and the cells were further cultured for 24 hours. Then, a 4% aqueous glutaraldehyde solution in the same amount as the medium (0.25 ml) was added, and the culture fluid was left to stand at room temperature for 2 hours to fix the cells. After washing with water, a 0.05% aqueous solution of methylene blue was added to stain the cells. Under a microscope, the number of cells containing outgrown neurites (cells having at least one neutrite with a length at least two times as large as the long diameter of the cell) was counted visually, and the proportion of these cells in the entire cells was calculated. The well was observed over 5 or more visual fields (at least 2% of the entire surface area of the well) continuous to the left and right from a mark put at the center of the well, and more than 200 cells was counted. One drug compound was used in 6 different concentrations at most, and three runs were conducted for each concentration.
# [3] = system: mice; test: Acute toxicity, mouse; type: in vivo; conditions: Table 7, 1000 mg/kg p.o., 24 hours
# Protocol: The acute toxicity of the compounds of the invention was examined by the following method.
# Male ddy-strain 5-week old mice and male Wistar-strain 8 week old rats, five per group, were used as experimental animals. Each of the compounds was dissolved in saline and administered perorally, and the toxicity of the compound was assessed 24 hours after the administration.
# [4] = system: mouse neuroblastoma cell line neuro-2a; test: Activity on cell line neuro-2a (simple method); type: cell-based
# Protocol: as §1, with “(I). […]” for “(I).”
# As a simple method of evaluation, the number of cells have neurites with a length equal to, or larger than, the long diameter of the cell was divided by the total number of cells.
# [5] = Table 3 Run No. 6, 0.1 mM, control 4.4 ± 0.9
smiles,measurement,setting,value
c1ccc(CN2CCN(c3ncccn3)CC2)cc1 [Compound 132],Number of neurites/cell (mean ± S.D.),"[1]; Table 1 Run No. 5, 1 μg/ml, control 1.96 ± 0.64",1.95 ± 0.46 neurites/cell
same,Number of cells (mean ± S.E.),"[1]; Table 1 Run No. 5, 1 μg/ml",5.63 ± 0.68 × 10^4 /dish
same,Length of neurites (mean ± S.D.),"[1]; Table 1 Run No. 5, 1 μg/ml, control 46.41 ± 33.28",52.61 ± 32.09 μm/cell
same,Number of neurites/cell (mean ± S.D.),"[1]; Table 1 Run No. 5, 10 μg/ml, control 1.96 ± 0.64",2.03 ± 0.63 neurites/cell
same,Number of cells (mean ± S.E.),"[1]; Table 1 Run No. 5, 10 μg/ml",6.26 ± 0.27 × 10^4 /dish
same,Length of neurites (mean ± S.D.),"[1]; Table 1 Run No. 5, 10 μg/ml, control 46.41 ± 33.28",52.85 ± 30.00 μm/cell
same,Cells having neurites with a length at least twice the long diameter of cell/total number of cells,"[2]; Table 3 Run No. 1, 0.027 μM, control 2.2 ± 0.8",4.2 ± 1.0%
same,Cells having neurites with a length at least twice the long diameter of cell/total number of cells,"[2]; Table 3 Run No. 1, 0.27 μM, control 2.2 ± 0.8",4.3 ± 1.2%
same,Cells having neurites with a length at least twice the long diameter of cell/total number of cells,"[2]; Table 3 Run No. 1, 27 μM, control 2.2 ± 0.8",4.3 ± 0.5%
same,Cells having neurites with a length at least twice the long diameter of cell/total number of cells,"[2]; Table 3 Run No. 2, 0.1 mM, control 1.9 ± 0.9",4.4 ± 0.7%
same,Cells having neurites with a length at least twice the long diameter of cell/total number of cells,"[2]; Table 3 Run No. 2, 0.3 mM, control 1.9 ± 0.9",11.2 ± 1.3%
same,Cells having neurites with a length at least twice the long diameter of cell/total number of cells,"[2]; Table 3 Run No. 2, 1 mM, control 1.9 ± 0.9",9.1 ± 3.0%
same,Number of dead animals/number of test animals,[3],0/5
O=C1CCCc2nc(N3CCNCC3)ncc2N1 [Compound 502],Length of neurites (mean ± S.D.),"[1]; Table 1, Run No. 7 by footnote, 1 μg/ml, control 42.20 ± 17.75, all *P <0.01",52.24 ± 23.92 μm/cell
same,Number of neurites/cell (mean ± S.D.),"[1]; Table 1, last control group (Run No. 7 by footnote), 1 μg/ml, control 1.77 ± 0.68",1.99 ± 0.65 neurites/cell
same,Cells having neurites with a length at least twice the long diameter of cell/total number of cells,"[2]; Table 3 Run No. 8, 0.3 mM, control 3.7 ± 0.4",5.5 ± 2.0%
same,Cells having neurites with a length at least twice the long diameter of cell/total number of cells,"[2]; Table 3 Run No. 8, 1 mM, control 3.7 ± 0.4",7.8 ± 1.2%
same,Number of dead animals/number of test animals,[3],0/5
CCC(=O)N1Cc2nc(N3CCNCC3)ncc2C1=O [Compound 678],Cells having neurites with a length at least twice the long diameter of cell/total number of cells,"[2]; Table 3 Run No. 11, 0.1 mM, control 2.5 ± 0.6",4.1 ± 2.2%
same,Cells having neurites with a length at least twice the long diameter of cell/total number of cells,"[2]; Table 3 Run No. 11, 1 mM, control 2.5 ± 0.6",16.1 ± 1.6%
same,Cells having neurites with a length at least twice the long diameter of cell/total number of cells,"[2]; Table 3 Run No. 11, 3 mM, control 2.5 ± 0.6",9.1 ± 2.2%
same,Number of dead animals/number of test animals,[3],0/5
Cn1[nH]c2nc(N3CCNCC3)ncc2c1=O [Compound 802],Number of neurites/cell (mean ± S.D.),"[1]; Table 1, Run No. 7 by footnote, 10 μg/ml, control 1.77 ± 0.68",2.02 ± 0.71 neurites/cell
same,Length of neurites (mean ± S.D.),"[1]; Table 1, Run No. 7 by footnote, 10 μg/ml, control 42.20 ± 17.75, all *P <0.01",52.16 ± 19.79 μm/cell
same,Average of the proportions,"[4]; Table 2 neuro-2a Run No. 2, 1 μg/ml, control 7.9",19.68%
same,Average of the proportions,"[4]; Table 2 neuro-2a Run No. 2, 10 μg/ml, control 7.9",15.51%
same,Cells having neurites with a length at least twice the long diameter of cell/total number of cells,[2]; [5],7.5 ± 2.2%
O=C1NCc2nc(N3CCNCC3)ncc21 [Compound 620],Average of the proportions,"[4]; Table 2 neuro-2a Run No. 3, 0.01 μg/ml, control 2.0",13.01%
same,Average of the proportions,"[4]; Table 2 neuro-2a Run No. 3, 0.1 μg/ml, control 2.0",15.46%
same,Average of the proportions,"[4]; Table 2 neuro-2a Run No. 3, 1 μg/ml, control 2.0",9.8%
same,Cells having neurites with a length at least twice the long diameter of cell/total number of cells,[2]; [5],7.2 ± 0.3%
same,Cells having neurites with a length at least twice the long diameter of cell/total number of cells,"[2]; Table 3 Run No. 6, 1 mM, control 4.4 ± 0.9",10.5 ± 3.2%
same,Cells having neurites with a length at least twice the long diameter of cell/total number of cells,"[2]; Table 3 Run No. 6, 3 mM, control 4.4 ± 0.9",20.7 ± 2.5%
same,Cells having neurites with a length at least twice the long diameter of cell/total number of cells,"[2]; Table 3 Run No. 9, 0.3 mM, control 2.0 ± 1.0",6.2 ± 1.5%
same,Cells having neurites with a length at least twice the long diameter of cell/total number of cells,"[2]; Table 3 Run No. 9, 1 mM, control 2.0 ± 1.0",11.3 ± 3.3%
same,Cells having neurites with a length at least twice the long diameter of cell/total number of cells,"[2]; Table 3 Run No. 9, 3 mM, control 2.0 ± 1.0",19.6 ± 0.5%
same,Number of dead animals/number of test animals,[3],0/5
